One assay deals with BmGr9 D165N. Nature of the assay: GCaMP calcium flux assay, BmGr9 D165N. The assay is classed as cell-based, Bombyx mori.
In the next assay the test system is BmGr9 T330A. Nature of the assay: GCaMP calcium flux assay, BmGr9 T330A. The assay is classed as cell-based, Bombyx mori. (In general: A change in cytosolic calcium serves as a functional read-out for many receptors and channels.)
The next assay concerns the target BmGr9 Q443E_Q445K (Bombyx mori, UniProt B3GTD7, Q443E/Q445K). Nature of the assay: GCaMP calcium flux assay, BmGr9 Q443E_Q445K. Type of assay: cell-based.
For the next assay, the target named is BmGr9 P331A (Bombyx mori, UniProt B3GTD7, P331A). Nature of the assay: GCaMP calcium flux assay, BmGr9 P331A. Type of assay: cell-based.
Chain of BmGr9 P331A (B3GTD7 entry or part of it P331A): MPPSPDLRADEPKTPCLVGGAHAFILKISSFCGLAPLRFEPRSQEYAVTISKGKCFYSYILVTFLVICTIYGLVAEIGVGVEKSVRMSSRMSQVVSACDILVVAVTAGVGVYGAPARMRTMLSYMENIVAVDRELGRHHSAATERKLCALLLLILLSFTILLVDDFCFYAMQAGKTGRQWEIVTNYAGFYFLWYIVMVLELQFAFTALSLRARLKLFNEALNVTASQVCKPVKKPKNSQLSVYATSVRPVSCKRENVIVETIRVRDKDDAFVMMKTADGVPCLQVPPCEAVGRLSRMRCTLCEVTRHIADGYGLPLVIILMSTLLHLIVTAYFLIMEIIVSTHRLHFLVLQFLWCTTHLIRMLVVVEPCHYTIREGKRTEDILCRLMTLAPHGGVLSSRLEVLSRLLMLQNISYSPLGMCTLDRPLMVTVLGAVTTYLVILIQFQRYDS
In another assay the test system is BmGr9 Q351E. Description: GCaMP calcium flux assay, BmGr9 Q351E. Type of assay: cell-based, Bombyx mori.
A further assay addresses BmGr9 Q445E (Bombyx mori, UniProt B3GTD7, Q445E). Description: GCaMP calcium flux assay, BmGr9 Q445E. The assay is classed as cell-based.
The target in the next assay is BmGr9 Y332F (Bombyx mori, UniProt B3GTD7, Y332F). Nature of the assay: GCaMP calcium flux assay, BmGr9 Y332F. The assay is classed as cell-based.
Chain of BmGr9 Y332F (B3GTD7 entry or part of it Y332F): as the sequence (B3GTD7 entry or part of it P331A) above, with A331P, Y332F counted along it
A further assay concerns the target BmGr9 (Bombyx mori, UniProt B3GTD7). Nature of the assay: Cell-based GCaMP calcium flux assay, wild-type BmGr9.
The next assay has as its target BmGr9 Q445N (Bombyx mori, UniProt B3GTD7, Q445N). Description: GCaMP calcium flux assay, BmGr9 Q445N. Type of assay: cell-based.
A further assay concerns the target BmGr9 Q443D (Bombyx mori, UniProt B3GTD7, Q443D). Nature of the assay: GCaMP calcium flux assay, BmGr9 Q443D. The assay is classed as cell-based.

Where “and” joins values, the source holds several entries; their conditions need not be identical. Identical values can stand only once. Entries after “also recorded” stand apart in the source; their conditions may differ.

Chain of BmGr9 (B3GTD7 entry or part of it): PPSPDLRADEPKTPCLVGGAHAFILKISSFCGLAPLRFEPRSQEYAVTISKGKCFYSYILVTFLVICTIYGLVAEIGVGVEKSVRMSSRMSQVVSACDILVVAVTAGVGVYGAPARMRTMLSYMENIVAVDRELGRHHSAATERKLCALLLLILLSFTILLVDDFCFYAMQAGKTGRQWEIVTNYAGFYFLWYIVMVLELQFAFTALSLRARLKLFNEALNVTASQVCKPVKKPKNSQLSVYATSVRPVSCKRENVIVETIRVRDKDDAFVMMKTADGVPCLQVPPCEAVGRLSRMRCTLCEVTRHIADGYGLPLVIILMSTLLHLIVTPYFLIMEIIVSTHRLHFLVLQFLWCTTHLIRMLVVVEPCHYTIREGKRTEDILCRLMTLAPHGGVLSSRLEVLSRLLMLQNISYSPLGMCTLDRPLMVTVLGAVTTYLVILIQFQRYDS
Chain of BmGr9 Q443D (B3GTD7 entry or part of it Q443D): as the sequence (B3GTD7 entry or part of it P331A) above, with A331P, Q443D counted along it
Chain of BmGr9 Q445E (B3GTD7 entry or part of it Q445E): as the sequence (B3GTD7 entry or part of it P331A) above, with A331P, Q445E counted along it
Chain of BmGr9 Q443E_Q445K (B3GTD7 entry or part of it Q443E/Q445K): as the sequence (B3GTD7 entry or part of it P331A) above, with A331P, Q443E, Q445K counted along it
Chain of BmGr9 Q445N (B3GTD7 entry or part of it Q445N): as the sequence (B3GTD7 entry or part of it P331A) above, with A331P, Q445N counted along it

As usually defined, the EC50 is the concentration at which the effect is half-maximal. Usually Hill coefficient stands for a measure of the steepness of the concentration-response curve. For the compound `O=C(CO)[C@@H](O)[C@H](O)[C@H](O)CO` [D-fructose], in the assay with BmGr9 D165N, the F max was roughly 0.10. In addition, the “activation by D-fructose (printed in Hill Slope column)” value with BmGr9 D165N was “no activity”. Further, the “activation by D-fructose (Fmax, Hill slope, EC50 fit)” value in the assay on BmGr9 T330A and in the assay with BmGr9 Q351E was “no activity” in each case. Also, the EC50 at BmGr9 Q443E_Q445K is 5.1 mM; at BmGr9 P331A, 5.5 mM; on BmGr9 Q445E it was 15.3 mM; at BmGr9 Y332F, 2.6 mM; on BmGr9 (EC50, WT BmGr9, 95% CI in parentheses), 8.71 mM; at BmGr9 (half-maximal activation concentration (EC50), Fig. 1b dose-response, HEK293 cells with BmGr9 and GCaMP6s, n = 8, 95% CI in parentheses), 9 mM and 8.2 mM. The 50% effective concentration (EC50) stood at 20.3 mM at BmGr9 Q445N and 10 mM on BmGr9 Q443D. Moreover, the “Hill Slope” value at BmGr9 Q443E_Q445K (Q443E_Q445K, 95% CI in parentheses) is given as 2.28 (1.51 to 3.62); on BmGr9 P331A (P331A, 95% CI in parentheses), 1.43 (0.87 to 2.39); at BmGr9 Q445E (Q445E, 95% CI in parentheses), 1.56 (0.68 to 3.75); on BmGr9 Y332F (Y332F), roughly 2.36; on BmGr9 (WT BmGr9, 95% CI in parentheses), 1.94 (1.48 to 2.58); on BmGr9 Q445N (Q445N, 95% CI in parentheses), 1.49 (0.79 to 2.76). The “Hill Slope” value on BmGr9 Q443D (Q443D, 95% CI in parentheses) was 1.52 (0.94 to 2.57). Further, the “apparent affinity relative to wild-type” value on BmGr9 Y332F (Tyr332 to Phe) is recorded as “slightly increases the apparent affinity”. Also, the “Activation of BmGr9 (change in fluorescence) by sweet compound” value at BmGr9 (100 mM sweet compound, HEK293 cells with BmGr9 plus GCaMP vs GCaMP only) is “elicited a strong response; also recorded: significantly different activity”. For the same compound, the Hill coefficient at BmGr9 (Fig. 1b dose-response, n = 8, 95% CI in parentheses) was 2.3 (1.3–4.6).

Values taken from paper PMC11062906 (Nature, 2024).
